pEC50, pIC50: −log10 of the molar value.
Assays:
Assay type in all cases: cell-based
[1] = test system: phospho-ERK in Panc10.05 (G12D); test: In-Cell Western phospho-ERK, Panc10.05; conditions: Homo sapiens, Panc1005, 1 h; Panc10.05, one hour treatment; read-out: In-Cell Western Panc10.05 (G12D) Erk (P)
Procedure: (§1) In-cell phosphorylation assays for Erk and Akt were performed on several of the compounds and exemplary results are shown in Table 3 below using HCC827 and A375 cell lines for wild type K-Ras and Panc1 and Panc10.05 cell lines for G12D K-Ras mutants. Results are expressed in μM and corresponding structures are shown in FIGS. 2A-2G and Examples 1-152, above.
(§2) Cells are seeded in complete medium into black sided, clear-bottom 384-well microplates at 3000 cells/[…]/well. Plates are returned to 37° C. CO2 incubator for 18 hr. Drug is made as 200× in DMSO and diluted into medium to 10×. To each well is added 4 ul 10× test article or controls, and plates are returned to the incubator. Final assay DMSO concentration is 0.5%. After one hour, cells are fixed in formaldehyde, rinsed & permeabilized with triton X-100, and blocked with BSA/Goat serum blocking solution. Primary phospho-Akt and phospho-ERK antibodies are added and plates are incubated overnight at 4° C. Plates are rinsed with Tween-20 wash buffer and secondary antibody (Goat anti-rabbit, Thermofisher) is added. After 2 hours, plates are rinsed in Tween-20 wash buffer, and then PBS. Plates are imaged on the Celigo (Nexcelom) and cellular fluorescence is quantitated. Full inhibition of phospho-Akt is achieved with 1 uM BEZ235 (Sellekchem), while full inhibition of phospho-ERK is achieved with 1 uM MEK Inhibitor II Calbiochem). EC50 values are calculated using Graphpad Prism.

[2] = test system: A375 (K-Ras wild type cell line); test: Viability assay (CellTiterBlue, 72 hr) A375; conditions: Homo sapiens, A-375, GI50, CellTiterBlue
Procedure: Viability assays were performed on exemplary compounds and Table 2 below lists exemplary results for selected compounds tested on K-Ras wild type cell lines (Ishikawa, U87-MG, HCC827, and A375) and various K-Ras mutant cell lines (Panc1-G12D; Panc10.05-G12D; HCT116-G31D). Results are expressed in μM and corresponding structures are shown in FIGS. 2A-2G and Examples 1-152, above.
Cells are counted and seeded at 1000 cells/36 ul medium/well into 384-well microplates. Cells are returned to 37° C. CO2 incubator for 18 hr. Drug is made as 200× in DMSO and diluted into medium to 10×. To each well is added 4 ul 10× drug, and plates are returned to the incubator. Final assay DMSO concentration is 0.5%. After 72 hr, 8 ul CellTiterBlue (Promega) is added to each well. After 3 hr, fluorescence (Ex550/Em590) is determined on the Victor Plate Reader (Perkin Elmer). Assay range is determined by DMSO control (100% viability) and 100 uM tamoxifen (0% viability). GI50 values are calculated using Graphpad Prism.

[3] = test system: Panc1-G12D; test: Viability assay (CellTiterBlue, 72 hr) Panc1; conditions: Homo sapiens, PANC-1, GI50, CellTiterBlue, Panc1 K-Ras G12D, read-out: 72 hr Cell Viability Panc1 (G12D)
How it was run: (§3)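 1000 cells/well, 18 hr pre-incubation at 37 °C; compound added from DMSO stock, 0.5% DMSO final; 72 hr; CellTiterBlue 3 hr, fluorescence Ex550/Em590; GI50 normalized to DMSO = 100%, 100 uM tamoxifen = 0% viability.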

[4] = test system: phospho-ERK in HCC827 (Wild-type); test: In-Cell Western phospho-ERK, HCC827; conditions: Homo sapiens, 1 h; HCC827, one hour treatment; read-out: In-Cell Western HCC827 (Wild-type) Erk (P)
Procedure: as §1, §2

[5] = test system: Panc10.05-G12D; test: Viability assay (CellTiterBlue, 72 hr) Panc10.05; conditions: Homo sapiens, Panc1005, GI50, CellTiterBlue, Panc10.05 K-Ras G12D, read-out: 72 hr Cell Viability Panc10.05 (G12D)
How it was run: as §3

[6] = test system: phospho-Akt in A375 (Wild-type); test: In-Cell Western phospho-Akt, A375; conditions: Homo sapiens, A-375, 1 h; A375, one hour treatment; read-out: In-Cell Western A375 (Wild-type) Akt (P)
Procedure: as §1, §2

[7] = test system: phospho-ERK in A375 (Wild-type); test: In-Cell Western phospho-ERK, A375; conditions: Homo sapiens, A-375, 1 h; A375, one hour treatment; read-out: In-Cell Western A375 (Wild-type) Erk (P)
Procedure: as §1, §2

[8] = test system: phospho-Akt in Panc10.05 (G12D); test: In-Cell Western phospho-Akt, Panc10.05; conditions: Homo sapiens, Panc1005, 1 h; Panc10.05, one hour treatment; read-out: In-Cell Western Panc10.05 (G12D) Akt (P)
Procedure: as §1, §2

[9] = test system: HCC827 (K-Ras wild type cell line); test: Viability assay (CellTiterBlue, 72 hr) HCC827; conditions: Homo sapiens, GI50, CellTiterBlue, HCC827 K-Ras wild-type
How it was run: as §3

[10] = test system: U87-MG (K-Ras wild type cell line); test: Viability assay (CellTiterBlue, 72 hr) U87-MG; conditions: Homo sapiens, U-87 MG, GI50, CellTiterBlue, U87-MG K-Ras wild-type
How it was run: as §3

[11] = test system: Ishikawa (K-Ras wild type cell line); test: Viability assay (CellTiterBlue, 72 hr) Ishikawa; conditions: Homo sapiens, GI50, CellTiterBlue, Ishikawa K-Ras wild-type
How it was run: as §3

[12] = test system: phospho-Akt in Panc1 (G12D); test: In-Cell Western phospho-Akt, Panc1; conditions: Homo sapiens, PANC-1, 1 h; Panc1, one hour treatment; read-out: In-Cell Western Panc1 (G12D) Akt (P)
Procedure: as §1, §2

[13] = test system: phospho-ERK in Panc1 (G12D); test: In-Cell Western phospho-ERK, Panc1; conditions: Homo sapiens, PANC-1, 1 h; Panc1, one hour treatment; read-out: In-Cell Western Panc1 (G12D) Erk (P)
Procedure: as §1, §2

[14] = test system: HCT116-G31D; test: Viability assay (CellTiterBlue, 72 hr) HCT116; conditions: Homo sapiens, HCT-116, GI50, CellTiterBlue, HCT116 K-Ras G13D, read-out: 72 hr Cell Viability HCT116 (G13D)
How it was run: as §3

[15] = target: T1, wild type K-Ras (Homo sapiens, UniProt P01116); test: G-LISA Ras activation, 293H cells transfected with Ras wild-type, EGF stimulated; conditions: compound 1 hour, then 100 ng/ml EGF 2 minutes
T1 construct: expressed in transfected cells; host or cells: 293H cells
Procedure: 293H cells were seeded in 6-wells at 0.6×10^6 cells per well and transfected next day with 5 μg of Ras wild-type, or G12C, G12D or G12V mutant DNA plasmid vector using transfection reagent Lipofectamine 3000. Next day cells were treated with 3.125-25 μM of Ras compounds for 1 hour. Wild-type transfected cells were subsequently treated with 100 ng/ml EGF for 2 minutes. Cells were washed once in ice-cold PBS, lysed in complete lysis buffer on ice, and processed by G-LISA according to Cytoskeleton protocol.

[16] = target: T2, K-Ras G12D (Homo sapiens, UniProt P01116, G12D); test: G-LISA Ras activation, 293H cells transfected with G12D mutant; conditions: compound 1 hour
T2 construct: expressed in transfected cells; host or cells: 293H cells
How it was run: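 293H cells were transfected with wild-type or mutant Ras plasmid (Lipofectamine 3000), then exposed next day to compounds at 3.125-25 μM for 1 hour. Wild-type transfectants received 100 ng/ml EGF for 2 minutes before ice-cold PBS wash, lysis on ice and G-LISA readout of active Ras.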

T1 sequence (P01116 whole entry): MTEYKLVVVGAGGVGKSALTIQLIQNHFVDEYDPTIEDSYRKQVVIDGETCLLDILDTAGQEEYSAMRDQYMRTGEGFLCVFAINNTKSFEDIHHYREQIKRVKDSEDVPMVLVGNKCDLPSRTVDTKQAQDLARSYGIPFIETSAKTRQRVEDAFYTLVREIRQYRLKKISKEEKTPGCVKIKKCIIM
T2 sequence (P01116 whole entry G12D): as the sequence (P01116 whole entry) above, with G12D counted along it

Compound | pEC50 [1] | pIC50 [2] | pIC50 [3] | pEC50 [4] | pIC50 [5] | pEC50 [6] | pEC50 [7] | pEC50 [8] | pIC50 [9] | pIC50 [10] | pIC50 [11] | pEC50 [12] | pEC50 [13] | pIC50 [14] | IC50 [15] [µM] | IC50 [16] [µM]
Cn1nc(C(F)(F)F)cc1C(=O)Nc1nc(-c2ccc3c(c2)CCC(=O)N3)cs1 [Compound 50, 1-methyl-N-(4-(2-oxo-1,2,3,4-tetrahydroquinolin-6-yl)thiazol-2-yl)-3-(trifluoromethyl)-1H-pyrazole-5-carboxamide] | < 4.60 | < 4.60 | < 4.60 | 4.89 | < 4.60 | < 4.60 | < 4.60 | < 4.60 | < 4.60 | < 4.60 | < 4.60 | < 4.60 | < 4.60 | < 4.60 | – | –
Cc1nc(C2CCCC2)sc1C(=O)Nc1nc(-c2ccc3c(c2)CCC(=O)N3)cs1 [Compound 145, 2-cyclopentyl-4-methyl-N-(4-(2-oxo-1,2,3,4-tetrahydroquinolin-6-yl)thiazol-2-yl)thiazole-5-carboxamide] | 5.15 | – | 4.96 | – | 5.15 | – | – | 4.77 | – | 4.80 | < 4.60 | 4.74 | 5.30 | < 4.60 | > 25 | 24
Cc1nn(C)cc1C(=O)Nc1nc(-c2ccc3c(c2)CCC(=O)N3)cs1 [Compound 21, 1,3-dimethyl-N-(4-(2-oxo-1,2,3,4-tetrahydroquinolin-6-yl)thiazol-2-yl)-1H-pyrazole-4-carboxamide] | < 4.60 | – | 5.70 | – | 6.10 | – | – | 5.10 | 5.22 | – | 5.30 | 4.92 | < 4.60 | 5.00 | 17.1 | 3.8
Cn1nccc1C(=O)Nc1nc(-c2ccc3c(c2)CCC(=O)N3)cs1 [Compound 51, 1-methyl-N-(4-(2-oxo-1,2,3,4-tetrahydroquinolin-6-yl)thiazol-2-yl)-1H-pyrazole-5-carboxamide] | 4.60 | < 4.60 | < 4.60 | < 4.60 | < 4.60 | < 4.60 | < 4.60 | – | < 4.60 | < 4.60 | < 4.60 | < 4.60 | < 4.60 | < 4.60 | – | 21.5
CCc1nc(C)c(C(=O)Nc2nc(-c3ccc4c(c3)CCC(=O)N4)cs2)o1 [Compound 5, 2-ethyl-4-methyl-N-(4-(2-oxo-1,2,3,4-tetrahydroquinolin-6-yl)thiazol-2-yl)oxazole-5-carboxamide] | – | – | 5.22 | – | 4.72 | – | – | 5.10 | – | < 4.60 | < 4.60 | 4.89 | – | 4.66 | 14.1 | 10.2
Cc1cc(C(=O)Nc2nc(-c3ccc4c(c3)CCC(=O)N4)cs2)n(C)n1 [Compound 22, 1,3-dimethyl-N-(4-(2-oxo-1,2,3,4-tetrahydroquinolin-6-yl)thiazol-2-yl)-1H-pyrazole-5-carboxamide] | < 4.60 | – | 5.89 | – | 6.13 | – | – | 4.57 | 4.66 | – | 5.40 | < 4.60 | < 4.60 | < 4.60 | 12.6 | 4.6
Cc1nc(C2CC2)oc1C(=O)Nc1nc(-c2ccc3c(c2)CCC(=O)N3CCc2ccccc2)cs1 [Compound 61, 2-cyclopropyl-4-methyl-N-(4-(2-oxo-1-phenethyl-1,2,3,4-tetrahydroquinolin-6-yl)thiazol-2-yl)oxazole-5-carboxamide] | 5.70 | – | 5.80 | – | 6.06 | – | – | – | – | 5.89 | 5.68 | 5.70 | 6.28 | 5.52 | 8.5 | 5.1
Cc1nc(C(C)C)sc1C(=O)Nc1nc(-c2ccc3c(c2)CCC(=O)N3)cs1 [Compound 3, 2-isopropyl-4-methyl-N-(4-(2-oxo-1,2,3,4-tetrahydroquinolin-6-yl)thiazol-2-yl)thiazole-5-carboxamide] | 5.52 | – | 5.26 | – | 4.85 | – | – | 5.10 | – | 4.92 | < 4.60 | 5.05 | 5.70 | 4.74 | 12 | –
Cc1nc(CNC(=O)OC(C)(C)C)sc1C(=O)Nc1nc(-c2ccc3c(c2)CCC(=O)N3)cs1 [Compound 143, tert-butyl ((4-methyl-5-((4-(2-oxo-1,2,3,4-tetrahydroquinolin-6-yl)thiazol-2-yl)carbamoyl)thiazol-2-yl)methyl)carbamate] | 5.10 | – | 5.15 | – | 5.40 | – | – | 4.92 | – | 5.05 | < 4.60 | 4.85 | 5.10 | < 4.60 | 19 | –
